Source: article PMC3885398, “Evaluation of the Antitumor Effects of BPR1J-340, a Potent and Selective FLT3 Inhibitor, Alone or in Combination with an HDAC Inhibitor, Vorinostat, in AML Cancer” (PLoS ONE, 2014)
Entries after “also recorded” stand apart in the source; their conditions may differ.

Tests used:
[1] = system: STAT5 phosphorylation at Tyr694; experiment: STAT5 phosphorylation at Tyr694 in MOLM-13 cells, Western blot; type: cell-based, human; conditions: MOLM-13, 20 hours, Fig. 4D
Protocol: Cells were lysed in lysis buffer (50 mM Tris, pH 8.0, 150 mM NaCl, 1% Triton X-100, 0.5% sodium deoxycholate, 0.1% SDS, 1 mM sodium orthovanadate, 1 mM PMSF, and 1 mM DTT). Protein lysates were resolved by SDS-PAGE and transferred onto a polyvinylidene difluoride (PVDF) membrane (Millipore, Bedford, MA, USA). The membranes were immunoblotted with appropriate antibodies and detected using the SuperSignal reagent (Pierce, Rockford, IL, USA) followed by exposure to X-ray film.
Some histone deacetylase inhibitors (HDACi) will enhance the cytotoxic activity of FLT3 inhibitor on FLT3-ITD^+ cell via degradation of FLT3-ITD and STAT5 [24], [26], [36], [37]. To determine whether SAHA, an HDACi, can synergize with BPR1J-340 to enhance cytotoxicity in FLT3-ITD expressing cells by interfering with the FLT3-ITD and STAT5 axis, the combined effects of SAHA and BPR1J-340 on cytotoxicity were examined. The cell growth rate of MOLM-13 and MV4;11 with SAHA and BPR1J-340 combinational treatment was decreased compared with the single-drug treatment (Fig. 4A). […]
Figure 4 The effect of BPR1J-340 and SAHA versus drug combination on AML FLT3-ITD+ cells. […] (A) Viable cells were counted after staining with trypan blue dye at indicated time point (B) At 48-hours after treatment, cells were stained with FITC-labeled annexin V and propidium iodide and percentages of apoptotic cells were analyzed by flow cytometry. […]

MOLM-13 tumor xenograft = experiment: Subcutaneous MOLM-13 tumor xenograft in nude mice; type: in vivo
Protocol: Male nude mice (Nu-Fox1nu) of eight weeks old were purchased from BioLasco (Ilan, Taiwan). The nude mice (n = 5∼7 per group) were inoculated subcutaneously with MOLM-13 (1×10^6 cells/flank). All human cancer cells were determined to be free of Mycoplasma spp before the inoculation. When tumors size reached 100∼200 mm^3 and a large size of >500 mm^3, the animals were grouped and treated with the BPR1J-340 (5 and 20 mg/kg, i.v.) or vehicle as control once daily for 5 days per week for two or three weeks. Tumor sizes were measured and calculated with the formula of length×width^2/2 after the initiation of the treatments. Tumor size and animal body weight were measured twice a week after the tumor cell inoculation. At the end of the study, animals were euthanized by carbon dioxide inhalation followed by cervical dislocation. The significant difference between the treated and vehicle control were analyzed by using one-way ANOVA and Student-Newman-Keuls test. The level of a statistical significance was set at p<0.05.

CCc1cc(NC(=O)NCc2ccc(-c3cc(NC(=O)c4ccc(CN5CCN(C)CC5)cc4)[nH]n3)cc2)no1 [BPR1J-340, N1-(3-4-[([(5-ethyl-3-isoxazolyl)amino]carbonylamino)methyl]phenyl-1H-5-pyrazolyl)-4-[(4-methylpiperazino)methyl]benzamide]
STAT5 phosphorylation at Tyr694 [1]: completely block
CR ratio (MOLM-13 tumor xenograft; 5 mg/kg): 67%
tumor response (MOLM-13 tumor xenograft; 5 mg/kg i.v. qd, days 1–5 of each week for 3 weeks, tumors about 200 mm^3): complete regression of the tumor in all animals by day 22; also recorded: inhibited
complete regression (CR), animals (MOLM-13 tumor xenograft; 5 mg/kg i.v. qd, days 1–5 weekly for 3 weeks, within 31 days of post-treatment observation): 4 of 6
tumor response, large tumors (MOLM-13 tumor xenograft; 20 mg/kg i.v., days 1–5 of each week for 2 weeks, average tumor volume 630 mm^3, 48-day follow up): complete and durable tumor regression; also recorded: significantly reversed
body weight, mortality, tolerability (MOLM-13 tumor xenograft; nude mice, 5 and 20 mg/kg/day i.v.): well-tolerated
